Source: paper doi:10.1101/2020.10.22.350827v1 (biorxiv, 2020)
Substitutions are numbered along the chain they refer to.

Key:
[1] = target: T1, Nluc-A1R (adenosine A1 receptor) (Homo sapiens, UniProt P30542, I175A); test: NanoBRET competition binding, live HEK […] cells; type: cell-based
T1 sequence (P30542 1-326 I175A): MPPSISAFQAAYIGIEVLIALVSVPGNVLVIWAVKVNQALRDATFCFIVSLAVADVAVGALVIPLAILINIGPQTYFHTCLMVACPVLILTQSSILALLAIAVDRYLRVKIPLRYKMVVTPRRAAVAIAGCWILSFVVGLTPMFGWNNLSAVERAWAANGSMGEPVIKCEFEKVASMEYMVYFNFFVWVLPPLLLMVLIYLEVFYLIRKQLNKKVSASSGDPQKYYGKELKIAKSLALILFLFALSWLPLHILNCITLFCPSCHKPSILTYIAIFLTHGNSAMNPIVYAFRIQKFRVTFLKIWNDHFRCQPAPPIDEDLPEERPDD

[2] = target: T2, Nluc-A1R (adenosine A1 receptor) (Homo sapiens, UniProt P30542, Y271A); test: NanoBRET competition binding, live HEK […] cells; type: cell-based
T2 sequence (P30542 1-326 Y271A): T1 sequence (P30542 1-326 I175A) with A175I, Y271A

[3] = target: T3, Nluc-A1R (adenosine A1 receptor) H264A (Homo sapiens, UniProt P30542, H264A); test: cell-based; parameters: species or system HEK 293
T3 sequence (P30542 1-326 H264A): T1 sequence (P30542 1-326 I175A) with A175I, H264A

[4] = target: T4, Nluc-A1R (adenosine A1 receptor) S267A (Homo sapiens, UniProt P30542, S267A); test: cell-based; parameters: species or system HEK 293
T4 sequence (P30542 1-326 S267A): T1 sequence (P30542 1-326 I175A) with A175I, S267A

[5] = target: T5, Nluc-A1R (adenosine A1 receptor) Y12A (Homo sapiens, UniProt P30542, Y12A); test: cell-based; parameters: species or system HEK 293
T5 sequence (P30542 1-326 Y12A): T1 sequence (P30542 1-326 I175A) with Y12A, A175I

[6] = target: T6, Nluc-A1R (adenosine A1 receptor) N148A (Homo sapiens, UniProt P30542, N148A); test: cell-based; parameters: species or system HEK 293
T6 sequence (P30542 1-326 N148A): T1 sequence (P30542 1-326 I175A) with N148A, A175I

[7] = target: T7, Nluc-A1R (adenosine A1 receptor) L253F (Homo sapiens, UniProt P30542, L253F); test: cell-based; parameters: species or system HEK 293
T7 sequence (P30542 1-326 L253F): T1 sequence (P30542 1-326 I175A) with A175I, L253F

Ki [1]: 2190 nM
Ki [2]: 7080 nM
Ki [3]: 955 nM
Ki [4]: 1020 nM
Ki [5]: 1660 nM
Ki [6]: 708 nM
Ki [7]: 1620 nM
Structure (SMILES): OC[C@H]1O[C@@H](n2cnc3c(N[C@@H]4CCC[C@H]4O)ncnc32)[C@H](O)[C@@H]1O [compound 6, HOCPA]
